Data on 27 molecules can be found in patent publication US12037322B2, “AHR agonists” (Eli Lilly and Company, priority 2021, dated 2024).

This experiment has as its target T1, hAHR (Homo sapiens, UniProt P35869).
T1 construct: expressed in transfected cells
T1 sequence (P35869 11-848): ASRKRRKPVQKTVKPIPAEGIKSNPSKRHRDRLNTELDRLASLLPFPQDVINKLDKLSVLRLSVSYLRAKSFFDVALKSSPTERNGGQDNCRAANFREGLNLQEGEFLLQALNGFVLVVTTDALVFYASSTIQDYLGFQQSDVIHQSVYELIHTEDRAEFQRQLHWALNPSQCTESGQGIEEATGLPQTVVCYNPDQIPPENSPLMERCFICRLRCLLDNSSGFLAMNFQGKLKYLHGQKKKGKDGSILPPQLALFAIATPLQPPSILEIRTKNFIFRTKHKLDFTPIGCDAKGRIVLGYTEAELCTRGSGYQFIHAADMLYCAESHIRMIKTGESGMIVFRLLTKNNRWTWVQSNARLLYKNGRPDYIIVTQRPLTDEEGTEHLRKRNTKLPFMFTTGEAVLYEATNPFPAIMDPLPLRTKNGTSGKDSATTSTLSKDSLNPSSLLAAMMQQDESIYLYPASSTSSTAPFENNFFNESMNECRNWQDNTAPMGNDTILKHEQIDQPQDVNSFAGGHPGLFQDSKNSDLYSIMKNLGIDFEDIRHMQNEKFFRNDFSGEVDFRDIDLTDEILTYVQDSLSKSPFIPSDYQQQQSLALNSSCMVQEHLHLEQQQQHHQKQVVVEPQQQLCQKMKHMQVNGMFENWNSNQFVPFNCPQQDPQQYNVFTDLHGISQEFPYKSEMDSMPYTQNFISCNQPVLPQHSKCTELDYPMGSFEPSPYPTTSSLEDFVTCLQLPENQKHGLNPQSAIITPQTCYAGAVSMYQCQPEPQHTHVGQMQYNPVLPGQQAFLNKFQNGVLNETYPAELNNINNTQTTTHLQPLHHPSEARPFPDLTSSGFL
The experiment is described as follows: hAHR nuclear translocation assay. Type of experiment: cell-based. Conditions: Jump-In T-REx HEK293 cells expressing AhR-EGFP; 45 min incubation; ratio of EGFP intensity in nuclear over cytosol; 20-point curve. The procedure: Stable cell lines were established using Jump-In™ T-REx™ HEK293 Retargeting Kit (Life Technologies). hAhR cDNA was cloned into the pJTI R4 CMV-TO EGFP vector. The EGFP was cloned to the C-terminal of AHR to form AhR-EGFP chimera. The pJTI R4 CMV-TO AhR-EGFP vector was transfected using FuGENE® HD into Jump-In™ T-REx™ HEK293 cells. Transfected cells were selected using 2.5 mg/ml G418 for 10 to 14 days, then expanded, harvested, and suspended in freeze media (FBS with 8% DMSO) at 2×10^7 cells/mL, and aliquots were stored in liquid nitrogen. One day before the assay date, cells were thawed and resuspended in DMEM with 5% FBS in the presence of 1 μg/mL Doxycycline and plated into ploy-L-Lysine coated […]-384 ULTRA Microplates (Perkin Elmer) at 12,000 to 15,000 cells per well and incubated at 37° C. and 5% CO2 overnight. On the assay date, compound was serially diluted (1:2) into 384-well nunc plates with DMSO using acoustic dispensing (ECHO). The dose response was a 20-point curve. Compound was resuspended in 40 μL of DMEM plus 0.1% BSA. The culture media was damped and 25 μL of DMEM plus 0.1% BSA was added, then 25 μL of compound in DMEM plus 0.1% BSA was added into cell plates. Cells were incubated with compounds at 37° C. and 5% CO2 for 45 min.
The final DMSO concentration was 0.2%. The media was damped after 45 minutes incubation. The cells were fixed with 40 μL of cold MeOH (−20° C.) for 20 min. The MeOH was damped and 50 μL of DPBS containing 1 μg/mL Hochst was added into the cell plates. The intensity of EGFP was quantitated by using OPERA PHENIX® or Operetta™ high content image system (Perkin Elmer) with 20× Water Objective and five field per well. The ratio of EGFP fluorescent intensity in nuclear over cytosol was analyzed using a 4-parameter nonlinear logistic equation to determine the potency of AhR agonists.

In general, EC50 refers to the midpoint of the concentration-response curve. For the molecule `CC1CCc2c1cc(C(=O)Nc1nccc(C(F)(F)F)n1)c(=O)n2C` (stereo not drawn) [Example 7, 1,5-Dimethyl-2-oxo-N-[4-(trifluoromethyl)pyrimidin-2-yl]-6,7-dihydro-5H-cyclopenta[b]pyridine-3-carboxamide], the EC50 was 8.26 nM.
Consider `CC1CCc2c1cc(C(=O)Nc1ncc(C(F)(F)F)cn1)c(=O)n2C` (stereo not drawn) [Example 8, 1,5-Dimethyl-2-oxo-N-[5-(trifluoromethyl)pyrimidin-2-yl]-6,7-dihydro-5H-cyclopenta[b]pyridine-3-carboxamide], for which the concentration for a half-maximal effect (EC50) amounted to 1.42 nM.
Consider `CC1CCc2c1cc(C(=O)NC1CCCC1)c(=O)n2C` (stereo not drawn) [Example 9, N-Cyclopentyl-1,5-dimethyl-2-oxo-6,7-dihydro-5H-cyclopenta[b]pyridine-3-carboxamide], for which the EC50 was 191 nM.
For `C[C@H]1CCc2c1cc(C(=O)Nc1nnc(C(F)(F)F)s1)c(=O)n2C` [Example 10, (5S)-1,5-Dimethyl-2-oxo-N-[5-(trifluoromethyl)-1,3,4-thiadiazol-2-yl]-6,7-dihydro-5H-cyclopenta[b]pyridine-3-carboxamide] the value was 13.7 nM.
In the case of `C[C@H]1CCc2c1cc(C(=O)Nc1nnc(C(F)(F)F)o1)c(=O)n2C` [Example 11, (5S)-1,5-Dimethyl-2-oxo-N-[5-(trifluoromethyl)-1,3,4-oxadiazol-2-yl]-6,7-dihydro-5H-cyclopenta[b]pyridine-3-carboxamide], the EC50 is 64.7 nM.
As to `C[C@@H]1CCc2c1cc(C(=O)Nc1ncc(F)cn1)c(=O)n2C` [Example 12, (5R)-N-(5-Fluoropyrimidin-2-yl)-1,5-dimethyl-2-oxo-6,7-dihydro-5H-cyclopenta[b]pyridine-3-carboxamide], the EC50 was 7.9 nM.
For `C[C@H]1CCc2c1cc(C(=O)Nc1ncc(F)cn1)c(=O)n2C` [Example 13, (5S)-N-(5-Fluoropyrimidin-2-yl)-1,5-dimethyl-2-oxo-6,7-dihydro-5H-cyclopenta[b]pyridine-3-carboxamide] the value was 4.67 nM.
Then `Cn1c2c(cc(C(=O)Nc3ncc(F)cn3)c1=O)C(C)(C)CC2` [Example 14, N-(5-Fluoropyrimidin-2-yl)-1,5,5-trimethyl-2-oxo-6,7-dihydrocyclopenta[b]pyridine-3-carboxamide], with 26.8 nM.
On to `CC1CCc2c1cc(C(=O)Nc1nccs1)c(=O)n2C` (stereo not drawn) [Example 15, 1,5-Dimethyl-2-oxo-N-thiazol-2-yl-6,7-dihydro-5H-cyclopenta[b]pyridine-3-carboxamide], for which the EC50 was found to be 1.93 nM.
Then `C[C@@H]1CCc2c1cc(C(=O)Nc1ccns1)c(=O)n2C` [Example 16, (5R)-N-Isothiazol-5-yl-1,5-dimethyl-2-oxo-6,7-dihydro-5H-cyclopenta[b]pyridine-3-carboxamide], with 1.35 nM.
Then `C[C@H]1CCc2c1cc(C(=O)Nc1ccns1)c(=O)n2C` [Example 17, (5S)-N-Isothiazol-5-yl-1,5-dimethyl-2-oxo-6,7-dihydro-5H-cyclopenta[b]pyridine-3-carboxamide], with 1.34 nM.
Turning to `C[C@@H]1CCc2c1cc(C(=O)Nc1ccsn1)c(=O)n2C` [Example 18, (5R)-N-Isothiazol-3-yl-1,5-dimethyl-2-oxo-6,7-dihydro-5H-cyclopenta[b]pyridine-3-carboxamide], the EC50 was determined as 1.32 nM.
For `C[C@H]1CCc2c1cc(C(=O)Nc1ccsn1)c(=O)n2C` [Example 19, (5S)-N-Isothiazol-3-yl-1,5-dimethyl-2-oxo-6,7-dihydro-5H-cyclopenta[b]pyridine-3-carboxamide] the value was 1.04 nM; for `C[C@@H]1CCc2c1cc(C(=O)Nc1cnsc1)c(=O)n2C` [Example 20, (5R)-N-Isothiazol-4-yl-1,5-dimethyl-2-oxo-6,7-dihydro-5H-cyclopenta[b]pyridine-3-carboxamide], 5.23 nM.
As for `C[C@H]1CCc2c1cc(C(=O)Nc1cnsc1)c(=O)n2C` [Example 21, (5S)-N-Isothiazol-4-yl-1,5-dimethyl-2-oxo-6,7-dihydro-5H-cyclopenta[b]pyridine-3-carboxamide], the EC50 was determined as 4.72 nM.
Then `C[C@H]1CCc2c1cc(C(=O)Nc1ccccn1)c(=O)n2C` [Example 22, (5S)-1,5-Dimethyl-2-oxo-N-(2-pyridyl)-6,7-dihydro-5H-cyclopenta[b]pyridine-3-carboxamide], with 4.1 nM; and `C[C@@H]1CCc2c1cc(C(=O)Nc1ccccn1)c(=O)n2C` [Example 23, (5R)-1,5-Dimethyl-2-oxo-N-(2-pyridyl)-6,7-dihydro-5H-cyclopenta[b]pyridine-3-carboxamide], with 11.5 nM.
For `C[C@H]1CCc2c1cc(C(=O)Nc1ncc(Cl)cn1)c(=O)n2C` [Example 24, (5S)-N-(5-Chloropyrimidin-2-yl)-1,5-dimethyl-2-oxo-6,7-dihydro-5H-cyclopenta[b]pyridine-3-carboxamide] the value was 2.45 nM.
For `C[C@@H]1CCc2c1cc(C(=O)Nc1ncc(Cl)cn1)c(=O)n2C` [Example 25, (5R)-N-(5-Chloropyrimidin-2-yl)-1,5-dimethyl-2-oxo-6,7-dihydro-5H-cyclopenta[b]pyridine-3-carboxamide] the value was 1.91 nM.
With `CC1CCc2c1c(O)c(C(=O)Nc1ccc(F)cn1)c(=O)n2C` (stereo not drawn) [Example 26, N-(5-Fluoro-2-pyridyl)-4-hydroxy-1,5-dimethyl-2-oxo-6,7-dihydro-5H-cyclopenta[b]pyridine-3-carboxamide], the EC50 turned out to be 2.87 nM.
Then `COc1cnc(NC(=O)c2c(O)c3c(n(C)c2=O)CCC3C)nc1` (stereo not drawn) [Example 27, 4-Hydroxy-N-(5-methoxypyrimidin-2-yl)-1,5-dimethyl-2-oxo-6,7-dihydro-5H-cyclopenta[b]pyridine-3-carboxamide], with 6.41 nM.
For `CC1CCc2c1c(O)c(C(=O)Nc1ccc(C(F)(F)F)nc1)c(=O)n2C` (stereo not drawn) [Example 28, 4-Hydroxy-1,5-dimethyl-2-oxo-N-[6-(trifluoromethyl)-3-pyridyl]-6,7-dihydro-5H-cyclopenta[b]pyridine-3-carboxamide] the value was 3.68 nM.
For `CC1CCc2c1c(O)c(C(=O)Nc1ncccc1F)c(=O)n2C` (stereo not drawn) [Example 29, N-(3-Fluoro-2-pyridyl)-4-hydroxy-1,5-dimethyl-2-oxo-6,7-dihydro-5H-cyclopenta[b]pyridine-3-carboxamide] the value was 2.23 nM; for `CC1CCc2c1c(O)c(C(=O)Nc1ncc(F)cn1)c(=O)n2C` (stereo not drawn) [Example 30, N-(5-Fluoropyrimidin-2-yl)-4-hydroxy-1,5-dimethyl-2-oxo-6,7-dihydro-5H-cyclopenta[b]pyridine-3-carboxamide], 1.62 nM; for `CC1CCc2c1c(O)c(C(=O)Nc1nccc(C(F)(F)F)n1)c(=O)n2C` (stereo not drawn) [Example 31, 4-Hydroxy-1,5-dimethyl-2-oxo-N-[4-(trifluoromethyl)pyrimidin-2-yl]-6,7-dihydro-5H-cyclopenta[b]pyridine-3-carboxamide], 2.4 nM.
Take `CC1CCc2c1c(O)c(C(=O)Nc1ncc(C(F)(F)F)cn1)c(=O)n2C` (stereo not drawn) [Example 32, 4-Hydroxy-1,5-dimethyl-2-oxo-N-[5-(trifluoromethyl)pyrimidin-2-yl]-6,7-dihydro-5H-cyclopenta[b]pyridine-3-carboxamide]: the EC50 is 0.845 nM.
Then `CC1CCc2c1c(O)c(C(=O)Nc1ccc(C(F)(F)F)cn1)c(=O)n2C` (stereo not drawn) [Example 33, 4-Hydroxy-1,5-dimethyl-2-oxo-N-[5-(trifluoromethyl)-2-pyridyl]-6,7-dihydro-5H-cyclopenta[b]pyridine-3-carboxamide], with 2.64 nM.
